Experimental data: patent US8481538B2, “Heterocyclic inhibitors of c-Met and uses thereof” (Vertex Pharmaceuticals Incorporated, priority 2006, dated 2013)

Target: c-Met (Homo sapiens, UniProt P08581)
Experiment: Ki determination for the inhibition of c-Met (standard radiometric kinase assay)
Assay type: biochemical
Settings: radiometric 33P-ATP assay, 1.0 nM c-Met, 35 μM ATP, 0.5 mg/mL polyE4Y, competitive tight-binding fit
Protocol: Ki Determination for the Inhibition of c-Met
Compounds of the invention were screened for their ability to inhibit c-Met kinase activity using a standard radiometric assay. Briefly, in this kinase assay the transfer of the terminal ^33P-phosphate in ^33P-ATP to substrate polyE4Y is interrogated. The assay was carried out in 96-well plates to a final volume of 100 μL per well containing 1.0 nM c-Met, 100 mM HEPES (pH 7.5), 10 mM MgCl2, 25 mM NaCl, 0.01% BSA, 1 mM DTT, 0.5 mg/mL polyE4Y, and 35 μM ATP. Accordingly, compounds of the invention were dissolved in DMSO to make 10 mM initial stock solutions. Serial dilutions in DMSO were then made to obtain the final solutions for the assay. A 1.5 μL aliquot of DMSO or inhibitor in DMSO was added to each well. The reaction was initiated by the addition of ^33P-ATP and polyE4Y (obtained from Sigma). After 20 min, the reaction was quenched with 50 μL of 30% trichloroacetic acid (TCA) containing 4 mM ATP. The reaction mixture was transferred to the 0.66 mm GF filter plates (Corning) and washed three times with 5% TCA. Following the addition of 50 μL of Ultimate Gold™ high efficiency scintillant (Packard Bioscience), the samples were counted in a Packard TopCount NXT Microplate Scintillation and Luminescence Counter (Packard BioScience). The Ki values were calculated using Microsoft Excel Solver macros to fit the data to the kinetic model for competitive tight-binding inhibition.

c-Met, sequence (P08581 25-1390): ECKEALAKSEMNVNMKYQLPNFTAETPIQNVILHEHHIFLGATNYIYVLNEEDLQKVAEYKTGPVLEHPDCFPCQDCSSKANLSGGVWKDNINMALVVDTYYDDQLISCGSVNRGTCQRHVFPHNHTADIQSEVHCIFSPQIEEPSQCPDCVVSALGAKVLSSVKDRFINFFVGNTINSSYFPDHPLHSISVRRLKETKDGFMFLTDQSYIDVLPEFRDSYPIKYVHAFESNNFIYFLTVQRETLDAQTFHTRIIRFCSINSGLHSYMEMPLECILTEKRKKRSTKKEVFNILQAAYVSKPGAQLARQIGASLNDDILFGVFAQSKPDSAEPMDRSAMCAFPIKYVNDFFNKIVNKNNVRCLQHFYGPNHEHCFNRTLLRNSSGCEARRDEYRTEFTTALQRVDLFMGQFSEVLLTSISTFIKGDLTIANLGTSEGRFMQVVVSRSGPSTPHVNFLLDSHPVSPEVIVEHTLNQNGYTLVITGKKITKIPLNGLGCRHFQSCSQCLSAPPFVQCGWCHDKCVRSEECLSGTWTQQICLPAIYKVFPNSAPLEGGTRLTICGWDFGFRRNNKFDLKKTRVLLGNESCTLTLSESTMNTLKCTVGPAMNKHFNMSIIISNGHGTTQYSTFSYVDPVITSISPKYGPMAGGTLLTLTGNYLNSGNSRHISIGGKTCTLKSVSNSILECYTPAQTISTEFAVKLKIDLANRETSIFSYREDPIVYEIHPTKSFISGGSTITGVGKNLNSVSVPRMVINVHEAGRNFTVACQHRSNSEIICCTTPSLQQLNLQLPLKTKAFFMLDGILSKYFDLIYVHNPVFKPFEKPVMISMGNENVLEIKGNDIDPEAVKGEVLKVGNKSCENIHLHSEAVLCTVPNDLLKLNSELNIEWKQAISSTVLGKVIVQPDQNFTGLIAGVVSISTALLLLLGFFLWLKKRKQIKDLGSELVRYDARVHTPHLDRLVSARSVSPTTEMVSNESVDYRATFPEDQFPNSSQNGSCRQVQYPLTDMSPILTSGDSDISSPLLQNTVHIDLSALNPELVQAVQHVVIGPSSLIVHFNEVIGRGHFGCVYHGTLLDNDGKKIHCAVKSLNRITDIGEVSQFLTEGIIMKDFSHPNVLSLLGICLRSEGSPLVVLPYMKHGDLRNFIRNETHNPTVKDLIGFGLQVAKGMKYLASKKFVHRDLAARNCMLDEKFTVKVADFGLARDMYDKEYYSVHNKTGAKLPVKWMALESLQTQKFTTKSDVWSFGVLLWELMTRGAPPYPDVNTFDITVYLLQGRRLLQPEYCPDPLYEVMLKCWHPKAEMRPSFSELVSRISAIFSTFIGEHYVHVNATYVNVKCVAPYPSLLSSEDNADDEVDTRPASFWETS

Row | Ki | Compound
1 | ≤ 250 nM | C[C@@H](NC(=O)c1nc(-c2ccc(C3(O)CCNCC3)cc2)cnc1N)c1nnc2ccc(Nc3cccc(Cl)c3)nn12 [Compound 68]
2 | ≤ 250 nM | C[C@@H](NC(=O)c1nc(-c2cccc(N3CCNCC3)c2)cnc1N)c1nnc2ccc(Nc3cccc(Cl)c3)nn12 [Compound 69]
3 | ≤ 250 nM | C[C@@H](NC(=O)c1nc(-c2ccc(CN3CCCC3)c(F)c2)cnc1N)c1nnc2ccc(Nc3cccc(Cl)c3)nn12 [Compound 70]
4 | 250 to 2500 nM | CCOc1ccc2nnc([C@@H](C)NC(=O)c3nc(-c4ccc(CN5CCCC5)cc4)cnc3N)n2n1 [Compound 71]
5 | ≤ 250 nM | C[C@@H](NC(=O)c1nc(-c2ccc(N3CCNCC3)cc2)cnc1N)c1nnc2ccc(Nc3cccc(Cl)c3)nn12 [Compound 72]
6 | 250 to 2500 nM | C[C@@H](NC(=O)c1nc(-c2ccccc2)cnc1N)c1nnc2sc(N)nn12 [Compound 74]
7 | 250 to 2500 nM | Cc1nn2c([C@@H](C)NC(=O)c3nc(-c4ccccc4)cnc3N)nnc2s1 [Compound 75]
8 | ≤ 250 nM | C[C@@H](NC(=O)c1nc(-c2ccc(CN(C)C)cc2)cnc1N)c1nnc2ccc(Nc3cccc(Cl)c3)nn12 [Compound 76]
9 | ≤ 250 nM | C[C@@H](NC(=O)c1nc(-c2cccc(C3CCNCC3)c2)cnc1N)c1nnc2ccc(Nc3cccc(Cl)c3)nn12 [Compound 77]
10 | ≤ 250 nM | CNCc1ccc(-c2cnc(N)c(C(=O)N[C@H](C)c3nnc4ccc(Nc5cccc(Cl)c5)nn34)n2)cc1 [Compound 78]
11 | 250 to 2500 nM | Cc1ccc2nnc([C@@H](C)NC(=O)c3nc(-c4ccc(CN5CCCC5)cc4)cnc3N)n2n1 [Compound 79]
12 | ≤ 250 nM | C[C@@H](NC(=O)c1nc(-c2ccc(CN3CCCC3)cc2)cnc1N)c1nnc2ccc(-c3ccccc3)nn12 [Compound 80]
13 | 250 to 2500 nM | C[C@@H](NC(=O)c1nc(-c2cccs2)cnc1N)c1nnc2ccc(-c3ccccc3)nn12 [Compound 81]
14 | 250 to 2500 nM | C[C@@H](NC(=O)c1nc(-c2cnn(C)c2)cnc1N)c1nnc2ccc(-c3ccccc3)nn12 [Compound 82]
15 | ≤ 250 nM | C[C@@H](NC(=O)c1nc(-c2cnn(C3CCNCC3)c2)cnc1N)c1nnc2ccc(-c3ccccc3)nn12 [Compound 83]
